The source made the active and inactive calls. The calls are words filed in the database; no cut-off is given here.
Key:
[1] = test system: Human immunodeficiency virus; test: Substrate activity at HIV reverse transcriptase measured after 4 hrs by electrophoresis based primer extension assay
[2] = Prodrug conversion in human CEM/0 cell extract assessed as metabolite formation by measuring half life by HPLC analysis; format: ADME; settings: ccrf-cem
[3] = test system: Human immunodeficiency virus 1; test: Antiviral activity against HIV-1 HE infected in wild-type human CEM/0 cells assessed as inhibition of virus-induced cytopathic effect incubated for 4 to 5 days by light microscopic analysis; format: functional, organism-based; settings: Human immunodeficiency virus 1, HE, CCRF-CEM
[4] = test system: Human immunodeficiency virus 2; test: Antiviral activity against HIV-2 ROD infected in wild-type human CEM/0 cells assessed as inhibition of virus-induced cytopathic effect incubated for 4 to 5 days by light microscopic analysis; format: functional, organism-based; settings: Human immunodeficiency virus 2, ROD, CCRF-CEM
[5] = Retention time of the compound by HPLC analysis; format: physicochemical
[6] = Chemical stability of the compound in phosphate buffer saline assessed as half life at pH 7.3 by HPLC analysis; format: physicochemical; settings: phosphate buffered saline
[7] = Prodrug conversion in pH 7.3 phosphate buffer assessed as metabolite formation by measuring half life in presence of pig liver esterase by HPLC analysis; format: ADME; settings: isolated protein
[8] = Selectivity index, ratio of CC50 for human CEM cells to EC50 for HIV-2 ROD infected in thymidine kinase-deficient human CEM cells; format: toxicity; settings: read-out: Ratio CC50/EC50
[9] = Cytotoxicity against human CEM cells assessed as reduction in cell viability incubated for 4 to 5 days by light microscopic analysis; format: toxicity, cell-based; settings: CEM cells (CCRF-CEM), time 4-5 day
[10] = test system: Human immunodeficiency virus 2; test: Antiviral activity against HIV-2 ROD infected in thymidine kinase-deficient human CEM cells assessed as inhibition of virus-induced cytopathic effect incubated for 4 to 5 days by light microscopic analysis; format: functional, organism-based; settings: Human immunodeficiency virus 2, ROD, CCRF-CEM
[11] = Prodrug conversion in human CEM/0 cell extract assessed as ((2S,5R)-5-(5-methyl-2,4-dioxo-3,4-dihydropyrimidin-1(2H)-yl)-2,5-dihydrofuran-2-yl)methyl tri-hydrogen diphosphate formation by HPLC analysis; format: ADME; settings: ccrf-cem
[12] = biological target: T1, DNA polymerase subunit gamma-1 (Homo sapiens) (UniProt P54098); test: Substrate activity at human DNA polymerase gamma measured after 4 hrs by electrophoresis based primer extension assay
T1 sequence (whole entry): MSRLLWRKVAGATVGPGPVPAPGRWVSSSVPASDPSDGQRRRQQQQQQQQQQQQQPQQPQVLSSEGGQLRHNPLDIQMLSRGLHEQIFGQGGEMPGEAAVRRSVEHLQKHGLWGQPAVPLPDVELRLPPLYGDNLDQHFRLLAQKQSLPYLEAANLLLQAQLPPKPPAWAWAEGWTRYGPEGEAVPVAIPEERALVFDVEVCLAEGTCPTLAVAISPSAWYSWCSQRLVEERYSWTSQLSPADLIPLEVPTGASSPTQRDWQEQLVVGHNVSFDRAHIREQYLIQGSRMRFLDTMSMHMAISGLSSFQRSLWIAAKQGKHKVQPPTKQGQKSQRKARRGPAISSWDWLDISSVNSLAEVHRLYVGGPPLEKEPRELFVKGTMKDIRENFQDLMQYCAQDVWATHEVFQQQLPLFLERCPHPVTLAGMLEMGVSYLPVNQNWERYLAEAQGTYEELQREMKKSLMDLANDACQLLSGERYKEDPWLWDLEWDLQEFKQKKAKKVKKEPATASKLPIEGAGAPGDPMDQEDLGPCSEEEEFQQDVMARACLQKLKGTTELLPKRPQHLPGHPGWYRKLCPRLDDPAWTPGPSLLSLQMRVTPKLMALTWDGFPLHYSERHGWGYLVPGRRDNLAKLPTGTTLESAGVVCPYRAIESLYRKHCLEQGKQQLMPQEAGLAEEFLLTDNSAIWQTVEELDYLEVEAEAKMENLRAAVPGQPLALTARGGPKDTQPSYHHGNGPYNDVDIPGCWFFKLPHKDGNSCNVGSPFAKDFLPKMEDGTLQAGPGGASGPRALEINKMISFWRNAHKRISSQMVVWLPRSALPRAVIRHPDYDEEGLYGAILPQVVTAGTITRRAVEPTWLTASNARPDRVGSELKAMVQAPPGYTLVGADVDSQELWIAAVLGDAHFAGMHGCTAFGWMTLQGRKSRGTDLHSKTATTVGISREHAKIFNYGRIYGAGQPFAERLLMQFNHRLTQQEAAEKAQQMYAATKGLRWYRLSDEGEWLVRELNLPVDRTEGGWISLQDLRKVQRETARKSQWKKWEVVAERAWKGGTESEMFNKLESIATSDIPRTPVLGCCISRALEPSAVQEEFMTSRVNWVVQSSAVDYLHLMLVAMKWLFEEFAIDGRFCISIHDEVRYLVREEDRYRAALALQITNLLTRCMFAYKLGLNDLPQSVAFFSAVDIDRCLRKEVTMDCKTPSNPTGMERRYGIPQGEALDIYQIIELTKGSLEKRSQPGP

[13] = biological target: DNA polymerase beta (Homo sapiens) (UniProt P06746); test: Substrate activity at human DNA polymerase beta measured after 4 hrs by electrophoresis based primer extension assay
[14] = biological target: T2, DNA polymerase alpha catalytic subunit (Homo sapiens) (UniProt P09884); test: Substrate activity at human DNA polymerase alpha measured after 4 hrs by electrophoresis based primer extension assay
T2 sequence (whole entry): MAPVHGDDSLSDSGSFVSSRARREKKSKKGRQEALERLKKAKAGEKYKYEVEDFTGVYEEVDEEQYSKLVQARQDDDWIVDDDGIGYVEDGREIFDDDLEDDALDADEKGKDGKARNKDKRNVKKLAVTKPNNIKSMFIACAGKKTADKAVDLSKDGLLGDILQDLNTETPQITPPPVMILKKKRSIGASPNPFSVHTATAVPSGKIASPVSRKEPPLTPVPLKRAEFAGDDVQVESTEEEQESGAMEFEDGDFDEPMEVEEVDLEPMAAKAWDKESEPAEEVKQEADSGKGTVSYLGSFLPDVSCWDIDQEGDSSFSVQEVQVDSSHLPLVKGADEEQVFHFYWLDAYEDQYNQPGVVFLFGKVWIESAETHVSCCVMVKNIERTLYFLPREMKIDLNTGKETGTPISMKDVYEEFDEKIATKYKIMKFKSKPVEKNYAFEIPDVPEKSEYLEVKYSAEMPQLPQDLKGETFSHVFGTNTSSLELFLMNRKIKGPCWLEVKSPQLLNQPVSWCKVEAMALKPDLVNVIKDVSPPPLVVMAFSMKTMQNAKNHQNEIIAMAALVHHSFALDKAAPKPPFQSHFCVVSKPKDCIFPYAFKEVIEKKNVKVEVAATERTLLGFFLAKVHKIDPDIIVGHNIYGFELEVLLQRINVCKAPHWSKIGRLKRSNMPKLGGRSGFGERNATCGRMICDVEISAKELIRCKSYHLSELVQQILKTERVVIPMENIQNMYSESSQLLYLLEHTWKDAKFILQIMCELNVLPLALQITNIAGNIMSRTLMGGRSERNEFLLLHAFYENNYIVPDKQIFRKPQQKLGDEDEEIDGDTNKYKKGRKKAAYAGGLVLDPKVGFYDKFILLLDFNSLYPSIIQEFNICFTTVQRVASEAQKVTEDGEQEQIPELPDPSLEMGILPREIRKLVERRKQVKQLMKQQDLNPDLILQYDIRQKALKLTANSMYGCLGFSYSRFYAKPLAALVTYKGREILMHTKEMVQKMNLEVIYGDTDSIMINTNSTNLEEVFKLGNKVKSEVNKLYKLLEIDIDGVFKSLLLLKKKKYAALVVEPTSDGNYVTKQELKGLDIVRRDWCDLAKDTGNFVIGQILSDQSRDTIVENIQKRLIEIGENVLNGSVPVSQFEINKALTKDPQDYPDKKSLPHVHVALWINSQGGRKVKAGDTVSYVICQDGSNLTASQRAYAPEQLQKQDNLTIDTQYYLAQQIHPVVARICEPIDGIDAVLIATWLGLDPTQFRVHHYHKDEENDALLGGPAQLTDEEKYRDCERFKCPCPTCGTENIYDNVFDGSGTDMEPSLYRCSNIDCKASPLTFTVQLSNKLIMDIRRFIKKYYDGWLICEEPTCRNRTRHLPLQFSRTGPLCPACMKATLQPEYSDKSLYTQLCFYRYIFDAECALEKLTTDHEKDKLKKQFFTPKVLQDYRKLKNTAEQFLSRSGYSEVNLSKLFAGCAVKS

[15] = Prodrug conversion in pH 7.3 phosphate buffer assessed as ((2S,5R)-5-(5-methyl-2,4-dioxo-3,4-dihydropyrimidin-1(2H)-yl)-2,5-dihydrofuran-2-yl)methyl tri-hydrogen diphosphate formation by measuring half life in presence of pig liver esterase by HPLC analysis; format: ADME

| SMILES | Activity [1] | t1/2 [2] | EC50 [3] | EC50 [4] | Retention_time [5] | half-life [6] | t1/2 [7] | selectivity ratio [8] | CC50 [9] | EC50 [10] | Drug metabolism [11] | Activity [12] | Activity [13] | Activity [14] | t1/2 [15] | Drug metabolism [2] |
| --- | --- | --- | --- | --- | --- | --- | --- | --- | --- | --- | --- | --- | --- | --- | --- | --- |
| Cc1cn([C@H]2C=C[C@@H](COP(=O)(O)OP(=O)(O)O)O2)c(=O)[nH]c1=O | Active | – | – | – | – | – | – | – | – | – | – | – | – | – | – | – |
| CCCCCCCCCCCCOP(=O)(OCc1ccc(OC(=O)CCCCCCCCCCC)cc1)OP(=O)(O)OC[C@@H]1C=C[C@H](n2cc(C)c(=O)[nH]c2=O)O1.N (stereo not given in full) | – | 4.5 h | 120 nM | 120 nM | 20.9 min | 15.5 days | 40.2 min | 1010 | 48.4 µM | 0.048 µM | – | – | – | – | – | – |
| CCCCCCCCCCCCCCCCCCOP(=O)(O)OP(=O)(O)OC[C@@H]1C=C[C@H](n2cc(C)c(=O)[nH]c2=O)O1.N.N | inactive | > 13 h | 330 nM | 68 nM | 15.1 min | > 125 days | – | > 62500 | > 100 µM | 0.001 µM | Metabolite_Notdetected | inactive | inactive | inactive | > 150 h | – |
| COP(=O)(O)OP(=O)(O)OC[C@@H]1C=C[C@H](n2cc(C)c(=O)[nH]c2=O)O1.N.N | – | – | 520 nM | 180 nM | 8.9 min | > 125 days | – | > 2 | > 100 µM | 40.4 µM | Metabolite_Notdetected | inactive | inactive | inactive | > 150 h | Metabolite_Notdetected |
| CCCCCCCCCCCCOP(=O)(O)OP(=O)(O)OC[C@@H]1C=C[C@H](n2cc(C)c(=O)[nH]c2=O)O1.N.N | – | > 30 h | 560 nM | 190 nM | 12.6 min | > 125 days | – | > 9 | > 100 µM | 11 µM | Metabolite_Notdetected | inactive | inactive | inactive | > 150 h | – |
| CCCCCCCCCCCCCCCCCCOP(=O)(OCc1ccc(OC(=O)CCCC)cc1)OP(=O)(O)OC[C@@H]1C=C[C@H](n2cc(C)c(=O)[nH]c2=O)O1.N (stereo not given in full) | – | > 7 h | 59 nM | 36 nM | 20.3 min | 16.9 days | 10.8 min | 3170 | 50.6 µM | 0.016 µM | – | – | – | – | – | – |
| CCCCCCCCCCCCP(=O)(O)OP(=O)(O)OC[C@@H]1C=C[C@H](n2cc(C)c(=O)[nH]c2=O)O1.N.N | – | > 30 h | 870 nM | 200 nM | 12.3 min | > 83.3 days | – | > 8 | > 100 µM | 12.6 µM | Metabolite_Notdetected | – | – | – | > 150 h | – |
| CCCCOP(=O)(O)OP(=O)(O)OC[C@@H]1C=C[C@H](n2cc(C)c(=O)[nH]c2=O)O1.N.N | – | > 30 h | 720 nM | 420 nM | 9.4 min | > 125 days | – | > 2 | > 100 µM | 43.2 µM | Metabolite_Notdetected | inactive | inactive | inactive | > 150 h | – |
| Cc1cn([C@H]2C=C[C@@H](CO)O2)c(=O)[nH]c1=O [STAVUDINE] | – | – | – | – | – | – | – | > 1 | > 50 µM | > 50 µM | – | – | – | – | – | – |

Source: ChEMBL document CHEMBL5365447, “Pronucleotides of 2',3'-Dideoxy-2',3'-Didehydrothymidine as Potent Anti-HIV Compounds” (J Med Chem, 2023)
